Experimental data reported in patent US5869494A, “Uses for barbituric acid analogs” (priority 1997, dated 1999).
Where two headings read alike, the source gives them in different places.

Tests used:
[1] = system: PC-3 human prostate cancer cells; assay: Cytotoxicity for prostate cancer cell line PC-3 (MTT assay); assay type: cell-based; settings: read-out: Percent cell kill; for cytotoxicity at 50 µg/mL: 50 μg/ml; for cytotoxicity at 100 µg/mL: 100 μg/ml; for cytotoxicity at 150 µg/mL: 150 μg/ml
Procedure: (§1) In the following examples, tumor cells were treated with varying concentrations of compounds C1, C2, C4 or C5 dissolved in absolute ethanol. To limit any non-specific toxicity, the final concentration of ethanol was not allowed to exceed 0.5%. Stock concentrations of 5 mg/ml or 20 mg/ml were used. Viability of cells was determined in some studies by the trypan blue dye exclusion method. In other studies, cell viability/proliferation activity was determined by MTT assay by using a kit obtained from Promega, (Promega Corp., Madison, Wis. 53711). For this assay, a 100 μl cell suspension containing 5-10^3 monolayer cells or 1×10^5 suspension cells was placed in the wells of a 96-well microtiter plate. After overnight incubation, cells were treated with different concentrations of the test compound. Control wells received vehicle only. After 24, 48, 72 or 96 h of incubation, 50 μl of MTT dye solution was added. After 4 h of incubation at 37° C., 100 μl of solubilization/stop solution was added. After another h of incubation, cells were mixed using a multi-channel pipet and the absorption of the dye color was recorded at 570 nm using a plate reading absorption spectrophotometer.
(§2) After the incubation period, viability of the cells was determined by MTT assay (Promega Corp., Madison, Wis. 53711).

[2] = system: DU-145 human prostate cancer cells; assay: Cytotoxicity for prostate cancer cell line DU-145 (MTT assay); assay type: cell-based; settings: read-out: Percent cell kill; for cytotoxicity at 50 µg/mL: 50 μg/ml; for cytotoxicity at 100 µg/mL: 100 μg/ml; for cytotoxicity at 150 µg/mL: 150 μg/ml
Procedure: as §1, §2

[3] = system: MCF-7 human breast cancer cells; assay: Cytotoxicity for breast cancer cell line MCF-7 (MTT assay); assay type: cell-based; settings: read-out: Percent cell kill; for cytotoxicity at 50 µg/mL: 50 μg/ml; for cytotoxicity at 100 µg/mL: 100 μg/ml; for cytotoxicity at 150 µg/mL: 150 μg/ml
Procedure: as §1, §2

[4] = system: BT-20 human breast cancer cells; assay: Cytotoxicity for breast cancer cell line BT-20 (MTT assay); assay type: cell-based; settings: read-out: Percent cell kill; for cytotoxicity at 50 µg/mL: 50 μg/ml; for cytotoxicity at 100 µg/mL: 100 μg/ml; for cytotoxicity at 150 µg/mL: 150 μg/ml
Procedure: as §1, §2

[5] = system: Daudi human lymphoma cells; assay: Cytotoxicity for lymphoma cells (Daudi); assay type: cell-based; settings: for cytotoxicity at 50 µg/mL / cytotoxicity at 100 µg/mL / cytotoxicity at 150 µg/mL: Homo sapiens, Daudi; for cytotoxicity at 50 µg/mL: 50 μg/ml; for cytotoxicity at 100 µg/mL: 100 μg/ml; for cytotoxicity at 150 µg/mL: 150 μg/ml, read-out: % Cytotoxicity
Procedure: as §1
The viability of the cells was
Compounds C4 and C5 were also tested for toxicity against human lymphoma Daudi cells.

[6] = system: L1210 mouse leukemia cells; assay: Cytotoxicity for leukemia cells (L1210); assay type: cell-based; settings: for cytotoxicity at 50 µg/mL / cytotoxicity at 110 µg/mL / cytotoxicity at 150 µg/mL: Mus musculus; for cytotoxicity at 50 µg/mL: 50 μg/ml; for cytotoxicity at 110 µg/mL: 110 μg/ml; for cytotoxicity at 150 µg/mL: 150 μg/ml
Procedure: as §1
The viability of the cells was […]

human prostate tumors = assay: Established human prostate tumors implanted in mice, intramuscular treatment; assay type: in vivo; settings: 100 mg/kg intramuscular, alternate days, after 5 weeks
Procedure: Similar experiments were carried out where implanted human prostate tumors (2×2 mm) were allowed to become established. Eight days later, the tumor size was ≈5×5 mm. Treatment was initiated which consisted of intramuscular injections of C1 (100 mg/kg) given on alternate days. After 5 weeks of treatment, tumors were not detectable by palpation in 2 of 3 animals. […] Untreated control mice (n=3), had tumors at 5 weeks of average size of 10×9mm.

[7] = In vivo toxicity, single escalating oral dose; settings: BALB/c mice
Procedure: A single escalating dose of the test drag is a procedure where a dose is administered to a group of mice (in this case n=3). If toxicity is not elicited, the next higher dose is given to a fresh group of mice and so on until toxicity is observed.

[8] = system: human immunodeficiency virus (HIV-1); assay: Inactivation of cell free HIV-1 (MT-4 indicator cells); assay type: cell-based; settings: 2 h treatment, MT-4 + HIV-1, day 7
Procedure: After 2 h at 37° C., treated and control HIV-1 samples were added to the indicator MT-4 cells (cultured human T cells) in the presence of 2 μg/ml POLYBRENE™ for 2 h. After washing, MT-4 cells were cultured in the presence of drug-treated or control (untreated) HIV-1. Cell viability of MT-4 cells was determined by the trypan blue dye exclusion method.

T cells = assay: Modulation of T cells in HIV-1 positive subjects; assay type: in vivo, human; settings: 4.3 mg/kg for 15 days; one subject; before treatment 425; normal range 650-1330
Text: Blood samples were drawn before and after on day 15 or 30 from the initiation of treatment for regular CBC profile. […] The normal range of T cells is 650-1330.

[9] = 48 h, all concentrations tested

CCCCN1C(=O)CC(=O)N(CCCC)C1=S [Compound C1, 4,6(1H, 5H)-pyrimidinedione, 1,3-dibutyldihydro-2-thioxo]
cytotoxicity at 50 µg/mL ([1]; 24 h, 24 hr): 61.7 ± 10% | cytotoxicity at 100 µg/mL ([1]; 24 h, 24 hr): 88.7 ± 5.5% | cytotoxicity at 150 µg/mL ([1]; 24 h, 24 hr): 90.5 ± 7.1% | cytotoxicity at 50 µg/mL ([1]; 48 h, 48 hr): 91 ± 3.6% | cytotoxicity at 100 µg/mL ([1]; 48 h, 48 hr): 92.7 ± 1.2% | cytotoxicity at 150 µg/mL ([1]; 48 h, 48 hr): 94.9 ± 5.3% | cytotoxicity at 50 µg/mL ([1]; 72 h, 72 hr): 100% | cytotoxicity at 100 µg/mL ([1]; 72 h, 72 hr): 100% | cytotoxicity at 150 µg/mL ([1]; 72 h, 72 hr): 100% | cytotoxicity at 50 µg/mL ([1]; 96 h, 96 hr): 100% | cytotoxicity at 100 µg/mL ([1]; 96 h, 96 hr): 100% | cytotoxicity at 150 µg/mL ([1]; 96 h, 96 hr): > 96% | cytotoxicity at 50 µg/mL ([2]; DU-145, 24 h, 24 hr): 0% | cytotoxicity at 100 µg/mL ([2]; DU-145, 24 h, 24 hr): 27.5 ± 6.4% | cytotoxicity at 150 µg/mL ([2]; DU-145, 24 h, 24 hr): 43 ± 2.9% | cytotoxicity at 50 µg/mL ([2]; DU-145, 48 h, 48 hr): 0% | cytotoxicity at 100 µg/mL ([2]; DU-145, 48 h, 48 hr): 52.2 ± 3.4% | cytotoxicity at 150 µg/mL ([2]; DU-145, 48 h, 48 hr): 71 ± 7.3% | cytotoxicity at 50 µg/mL ([2]; DU-145, 72 h, 72 hr): 23.5 ± 4.5% | cytotoxicity at 100 µg/mL ([2]; DU-145, 72 h, 72 hr): 58.7 ± 2.1% | cytotoxicity at 150 µg/mL ([2]; DU-145, 72 h, 72 hr): 78.7 ± 3.4% | cytotoxicity at 50 µg/mL ([2]; DU-145, 96 h, 96 hr): 26.2 ± 5.5% | cytotoxicity at 100 µg/mL ([2]; DU-145, 96 h, 96 hr): 64 ± 4.2% | cytotoxicity at 150 µg/mL ([2]; DU-145, 96 h, 96 hr): 82.5 ± 3.7% | cytotoxicity at 50 µg/mL ([3]; MCF7, 24 h, 24 hr): 39.5 ± 10.5% | cytotoxicity at 100 µg/mL ([3]; MCF7, 24 h, 24 hr): 57.3 ± 1.5% | cytotoxicity at 150 µg/mL ([3]; MCF7, 24 h, 24 hr): 87.8 ± 8.8% | cytotoxicity at 50 µg/mL ([3]; MCF7, 48 h, 48 hr): 67.5 ± 5.3% | cytotoxicity at 100 µg/mL ([3]; MCF7, 48 h, 48 hr): 92.8 ± 4.9% | cytotoxicity at 150 µg/mL ([3]; MCF7, 48 h, 48 hr): 92.3 ± 5.3% | cytotoxicity at 50 µg/mL ([3]; MCF7, 72 h, 72 hr): 85.8 ± 3.8% | cytotoxicity at 100 µg/mL ([3]; MCF7, 72 h, 72 hr): 88 ± 5.4% | cytotoxicity at 150 µg/mL ([3]; MCF7, 72 h, 72 hr): 84.5 ± 5.1% | cytotoxicity at 50 µg/mL ([3]; MCF7, 96 h, 96 hr): 97.8 ± 1.7% | cytotoxicity at 100 µg/mL ([3]; MCF7, 96 h, 96 hr): 97.8 ± 1.7% | cytotoxicity at 150 µg/mL ([3]; MCF7, 96 h, 96 hr): 96.5 ± 2.5% | cytotoxicity at 50 µg/mL ([4]; BT-20, 24 h, 24 hr): 43.3 ± 4.1% | cytotoxicity at 100 µg/mL ([4]; BT-20, 24 h, 24 hr): 62 ± 7.9% | cytotoxicity at 150 µg/mL ([4]; BT-20, 24 h, 24 hr): 94 ± 4.2% | cytotoxicity at 50 µg/mL ([4]; BT-20, 48 h, 48 hr): 65.5 ± 2.4% | cytotoxicity at 100 µg/mL ([4]; BT-20, 48 h, 48 hr): 91.3 ± 2.5% | cytotoxicity at 150 µg/mL ([4]; BT-20, 48 h, 48 hr): 96.5 ± 2.4% | cytotoxicity at 50 µg/mL ([4]; BT-20, 72 h, 72 hr): 73.3 ± 2.9% | cytotoxicity at 100 µg/mL ([4]; BT-20, 72 h, 72 hr): 86.8 ± 3.6% | cytotoxicity at 150 µg/mL ([4]; BT-20, 72 h, 72 hr): 86 ± 3.6% | cytotoxicity at 50 µg/mL ([4]; BT-20, 96 h, 96 hr): 100% | cytotoxicity at 100 µg/mL ([4]; BT-20, 96 h, 96 hr): 100% | cytotoxicity at 150 µg/mL ([4]; BT-20, 96 h, 96 hr): 100% | killing of cells [5, 9]: over 99% | cytotoxicity at 50 µg/mL ([5]; 24 h): 91.3 ± 4.6% | cytotoxicity at 100 µg/mL ([5]; 24 h): 93.3 ± 4.9% | cytotoxicity at 150 µg/mL ([5]; 24 h, 24 hr): 94 ± 4.9% | cytotoxicity at 50 µg/mL ([5]; 48 h): 99.9% | cytotoxicity at 100 µg/mL ([5]; 48 h): 99.9% | cytotoxicity at 150 µg/mL ([5]; 48 h, 48 hr): 99.9% | killing of cells [6, 9]: over 99% | cytotoxicity at 50 µg/mL ([6]; L1210, 24 h, 24 hr): 81.2 ± 4.3% | cytotoxicity at 110 µg/mL ([6]; L1210, 24 h, 24 hr): 93.5 ± 3.1% | cytotoxicity at 150 µg/mL ([6]; L1210, 24 h, 24 hr): 89.2 ± 3.2% | cytotoxicity at 50 µg/mL ([6]; L1210, 48 h, 48 hr): 99% | cytotoxicity at 110 µg/mL ([6]; L1210, 48 h, 48 hr, read-out: % Cytotoxicity): 99.9% | cytotoxicity at 150 µg/mL ([6]; L1210, 48 h, 48 hr): 99.9% | tumors not detectable by palpation (human prostate tumors): 2 of 3 | lethal single dose [7]: 2000 mg/kg | MTD ([7]; mouse, in vivo, read-out: single dose easily tolerated): ≥ 1200 mg/kg | % Inactivation Day 7 ([8]; 125 μg/ml): 62% | killing at 75 µg/mL ([8]; Human immunodeficiency virus 1, 168 h, 75 μg/ml): 7.7% | killing at 100 µg/mL ([8]; Human immunodeficiency virus 1, 168 h, 100 μg/ml): 34.1% | killing at 125 µg/mL ([8]; Human immunodeficiency virus 1, 168 h, 125 μg/ml): 62.6% | T cell count after treatment (T cells): 720
